What was measured:
Format in all cases: biochemical
TrkB = target: T1, TrkB (Homo sapiens, UniProt Q16620); assay: HTRF KinEASE kinase assay, TrkB enzyme; settings: recombinant Human TRK enzyme, NTRK2 1 nM, read-out: TrkB Enz (nM), Trk inhibition activity expressed as IC50
T1 construct: purchased Invitrogen
Description: (§1) To determine the IC50 of small molecule compounds for the Human TRK receptors, HTRF® KinEASE™ kinase kits from Cisbio were used. Assays were carried out in low volume, black 384-well plates.
(§2) Recombinant Human TRK enzymes (Invitrogen) were incubated in the presence or absence of the compound (11-point dose response with FAC as 10 μM) for 30 minutes at 23° C. Kinase reaction was started by addition of ATP to a mixture containing the enzyme (NTRK1-4 nM, NTRK2-1 nM, NTRK3-10 nM) and substrate (1 μM). Kinase reaction was allowed to carry on for 10 to 45 minutes at 23° C. after which it was stopped by addition of the detection mix (supplied by vendor) containing EDTA, TK-Ab-labelled with Eu^3+-cryptate (1:200 dilutions) and Streptavidin-XL665 (250 nM). Assay plates were incubated in this detection mix for 60 minutes at 23° C. The resulting TR-FRET signal, calculated as the fluorescence ratio at 665/620 nm, was read on an Envision and was proportional to the level of phosphorylation of the peptide in the presence or absence of the compound. The uniformity of the plates were assured with Z′ value [1-{3*(SDHPE+SDZPE)/(ZPE-HPE)}]. The percent (%) effect i.e. Inhibition of compound was calculated in comparison to the signal in the positive (HPE) and negative control (ZPE) wells within each assay plate. The endpoint value % Inhibition for the Standard compound was evaluated in each experiment as a quality control measure. IC50 was determined by plotting compound inhibition at respective dose in Graphpad prism5 using four parameter logistic curve fit.

TrkC = target: T2, TrkC (Homo sapiens, UniProt Q16288); assay: HTRF KinEASE kinase assay, TrkC enzyme; settings: recombinant Human TRK enzyme, NTRK3 10 nM, read-out: TrkC Enz (nM), Trk inhibition activity expressed as IC50
T2 construct: purchased Invitrogen
Description: as §1, §2

TrkA = target: T3, TrkA (Homo sapiens, UniProt P04629); assay: HTRF KinEASE kinase assay, TrkA enzyme; settings: recombinant Human TRK enzyme, NTRK1 4 nM, read-out: TrkA Enz (nM), Trk inhibition activity expressed as IC50
T3 construct: purchased Invitrogen
Description: as §1, §2

T2 sequence (Q16288 32-839): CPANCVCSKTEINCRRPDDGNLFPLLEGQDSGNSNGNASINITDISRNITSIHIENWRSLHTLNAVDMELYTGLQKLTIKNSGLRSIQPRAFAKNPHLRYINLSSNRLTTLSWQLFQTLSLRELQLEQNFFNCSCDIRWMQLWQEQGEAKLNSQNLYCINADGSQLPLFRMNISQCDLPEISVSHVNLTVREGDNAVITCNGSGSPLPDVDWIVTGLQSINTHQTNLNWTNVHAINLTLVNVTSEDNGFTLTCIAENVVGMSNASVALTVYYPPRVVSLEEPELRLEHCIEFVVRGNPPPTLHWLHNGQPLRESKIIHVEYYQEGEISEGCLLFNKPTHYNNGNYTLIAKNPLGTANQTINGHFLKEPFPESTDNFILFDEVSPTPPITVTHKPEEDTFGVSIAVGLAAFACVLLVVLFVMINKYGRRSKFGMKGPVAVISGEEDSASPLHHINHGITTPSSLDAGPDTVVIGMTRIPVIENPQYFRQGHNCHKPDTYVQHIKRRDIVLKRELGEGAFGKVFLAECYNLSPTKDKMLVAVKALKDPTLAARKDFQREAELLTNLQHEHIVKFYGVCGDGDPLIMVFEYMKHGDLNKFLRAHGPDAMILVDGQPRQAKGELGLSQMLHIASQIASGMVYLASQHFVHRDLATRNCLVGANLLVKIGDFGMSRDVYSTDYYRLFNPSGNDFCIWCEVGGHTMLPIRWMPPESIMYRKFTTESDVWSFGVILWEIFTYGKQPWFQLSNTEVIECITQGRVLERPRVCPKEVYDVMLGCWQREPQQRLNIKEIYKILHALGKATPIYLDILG
T1 sequence (Q16620 32-822): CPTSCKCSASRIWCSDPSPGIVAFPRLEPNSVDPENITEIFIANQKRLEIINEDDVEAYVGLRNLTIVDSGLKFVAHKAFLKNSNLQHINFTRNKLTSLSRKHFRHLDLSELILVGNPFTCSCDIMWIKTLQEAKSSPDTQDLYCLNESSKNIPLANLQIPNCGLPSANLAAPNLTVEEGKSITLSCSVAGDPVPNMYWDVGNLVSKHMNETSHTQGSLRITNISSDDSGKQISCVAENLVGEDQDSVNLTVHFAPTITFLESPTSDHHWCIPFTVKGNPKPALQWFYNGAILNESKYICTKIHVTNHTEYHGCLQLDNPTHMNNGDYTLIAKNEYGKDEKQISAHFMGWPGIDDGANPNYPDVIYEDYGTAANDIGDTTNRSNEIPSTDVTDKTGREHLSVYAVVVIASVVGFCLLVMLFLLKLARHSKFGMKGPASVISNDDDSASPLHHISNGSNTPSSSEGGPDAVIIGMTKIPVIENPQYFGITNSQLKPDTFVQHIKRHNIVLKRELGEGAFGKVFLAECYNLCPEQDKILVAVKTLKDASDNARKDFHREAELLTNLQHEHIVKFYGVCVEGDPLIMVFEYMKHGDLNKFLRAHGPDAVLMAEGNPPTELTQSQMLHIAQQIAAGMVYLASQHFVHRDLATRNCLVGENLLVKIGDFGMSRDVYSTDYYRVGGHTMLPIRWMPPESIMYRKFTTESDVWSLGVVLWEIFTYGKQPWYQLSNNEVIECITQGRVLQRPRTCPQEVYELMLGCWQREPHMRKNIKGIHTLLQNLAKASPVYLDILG
T3 sequence (P04629 33-796): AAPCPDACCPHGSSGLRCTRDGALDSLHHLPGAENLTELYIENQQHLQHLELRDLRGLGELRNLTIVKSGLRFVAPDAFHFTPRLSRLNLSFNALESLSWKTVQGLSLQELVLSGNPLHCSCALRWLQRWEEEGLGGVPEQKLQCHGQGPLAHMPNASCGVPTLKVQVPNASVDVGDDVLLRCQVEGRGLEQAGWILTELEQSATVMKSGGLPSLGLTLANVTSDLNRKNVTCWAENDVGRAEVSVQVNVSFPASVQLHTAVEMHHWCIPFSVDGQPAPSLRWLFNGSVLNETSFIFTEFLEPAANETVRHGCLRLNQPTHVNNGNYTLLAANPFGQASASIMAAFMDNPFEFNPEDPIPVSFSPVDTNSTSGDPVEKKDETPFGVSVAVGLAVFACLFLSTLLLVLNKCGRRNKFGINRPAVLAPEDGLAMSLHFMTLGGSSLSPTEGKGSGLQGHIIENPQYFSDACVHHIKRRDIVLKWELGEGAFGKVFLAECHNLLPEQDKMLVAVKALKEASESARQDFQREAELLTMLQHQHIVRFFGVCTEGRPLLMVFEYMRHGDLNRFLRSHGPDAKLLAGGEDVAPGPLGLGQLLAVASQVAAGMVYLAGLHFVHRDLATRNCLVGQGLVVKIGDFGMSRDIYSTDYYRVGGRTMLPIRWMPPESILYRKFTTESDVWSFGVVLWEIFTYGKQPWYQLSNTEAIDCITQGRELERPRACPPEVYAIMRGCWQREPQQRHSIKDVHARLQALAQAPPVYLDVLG

| Compound | IC50 (TrkB) | IC50 (TrkC) | IC50 (TrkA) |
| --- | --- | --- | --- |
| CSc1ccc(F)cc1[C@H]1CCCN1c1ccc2ncc(/C(=N/C#N)N[C@@H]3CCCOC3)n2n1 [Example 1, (Z)-N′-cyano-6-[(2R)-2-[5-fluoro-2-(methylsulfanyl)phenyl]pyrrolidin-1-yl]-N-[(3R)-oxan-3-yl]imidazo[1,2-b]pyridazine-3-carboximidamide] | 0.88 nM | 1.6 nM | 0.95 nM |
| CCN/C(=N\C#N)c1cnc2ccc(N3C[C@@H](F)C[C@@H]3c3cc(F)cc(SC)c3)nn12 [Example 3, (Z)-N′-cyano-N-ethyl-6-[(2R,4S)-4-fluoro-2-[5-fluoro-3-(methylsulfanyl)phenyl]pyrrolidin-1-yl]imidazo[1,2-b]pyridazine-3-carboximidamide] | 0.37 nM | 1.53 nM | 1.17 nM |
| CSc1ccc(F)cc1[C@H]1CCCN1c1ccc2ncc(/C(=N/C#N)N[C@H]3CCCOC3)n2n1 [Example 2, (Z)-N′-cyano-6-[(2R)-2-[5-fluoro-2-(methylsulfanyl)phenyl]pyrrolidin-1-yl]-N-[(3S)-oxan-3-yl]imidazo[1,2-b]pyridazine-3-carboximidamide] | 0.83 nM | 1.78 nM | 1.04 nM |
| CCN/C(=N\C#N)c1cnc2ccc(N3C[C@@H](F)C[C@@H]3c3cc(F)ccc3SC)nn12 [Example 4, (Z)-N′-cyano-N-ethyl-6-[(2R,4S)-4-fluoro-2-[5-fluoro-2-(methylsulfanyl)phenyl]pyrrolidin-1-yl]imidazo[1,2-b]pyridazine-3-carboximidamide] | 0.23 nM | 1 nM | 0.97 nM |

Now from value to compound:

| IC50 (TrkB) | IC50 (TrkC) | IC50 (TrkA) | Compound |
| --- | --- | --- | --- |
| 0.7 nM | 1.91 nM | 1.52 nM | CSc1ccc(F)cc1[C@H]1C[C@H](F)CN1c1ccc2ncc(/C(=N/C#N)NC3CCCCC3)n2n1 [Example 6, (Z)-N′-cyano-N-cyclohexyl-6-[(2R,4S)-4-fluoro-2-[5-fluoro-2-(methylsulfanyl)phenyl]pyrrolidin-1-yl]imidazo[1,2-b]pyridazine-3-carboximidamide] |
| 0.41 nM | 1.61 nM | 1.1 nM | CCCCN/C(=N\C#N)c1cnc2ccc(N3C[C@@H](F)C[C@@H]3c3cc(F)ccc3SC)nn12 [Example 5, (Z)-N-butyl-N′-cyano-6-[(2R,4S)-4-fluoro-2-[5-fluoro-2-(methylsulfanyl)phenyl]pyrrolidin-1-yl]imidazo[1,2-b]pyridazine-3-carboximidamide] |
| 1.55 nM | 3.16 nM | 1.44 nM | CSc1ccc(F)cc1[C@H]1CCCN1c1ccc2ncc(/C(=N/C#N)NCc3cccc(O)c3)n2n1 [Example 7, (Z)-N′-cyano-6-[(2R)-2-[5-fluoro-2-(methylsulfanyl)phenyl]pyrrolidin-1-yl]-N-[(3-hydroxyphenyl)methyl]imidazo[1,2-b]pyridazine-3-carboximidamide] |
